Data reported in US11091445B2, “Compounds, process for obtaining the compounds, pharmaceutical composition, use of the compounds and method for treating psychiatric disorders and/or sleep disorders” (Aché Laboratórios Farmacêuticos S.A., priority 2016, dated 2021).

Assays:
[1] = test system: cryopreserved human hepatocytes; assay: Intrinsic clearance in cryopreserved human hepatocytes; type: in vitro ADME; conditions: 37° C.
Description: (§1) Cryopreserved hepatocytes from humans, rats (Sprague-Dawley males) and from mice (CD-1 males) were used for incubation at different times (0, 0.5, 1, 1.5, 2 hours) at 37° C. followed by HPLC-MS/MS detection. The aim was to verify the clearance time of the test substance on hepatocytes. The experiment was performed on a 96-well plate and the cryopreserved hepatocytes were thawed and resuspended in Krebs-Heinslet buffer (pH 7.3). The reaction was started by adding each test compound to each cell suspension and performing the incubation at the times indicated above. The reaction was quenched with addition of acetonitrile in the wells and detection by HPLC-MS/MS (mass spectrometry). MS/MS is performed by combining two mass detectors into a single instrument.

[2] = test system: cryopreserved hepatocytes from rats (Sprague-Dawley males); assay: Intrinsic clearance in cryopreserved rat hepatocytes; type: in vitro ADME; conditions: 37° C.
Description: as §1

[3] = Pharmacokinetics in CD-1 mouse, I.V. and oral; type: in vivo; conditions: intravenous
Description: PK tests were performed with CD-1 mice, using 4 animals per molecule tested, 2 animals for pharmacokinetic analysis by intravenous (IV) administration and 2 animals for oral administration. The treatment was carried out in a single dose: I.V. group with dose of 1 mg/kg and Oral group with dose of 10 mg/kg. […] Blood collection was performed after euthanasia at 08 defined time points and at 24 hours post-dose. The pharmacokinetic analysis parameters detected for Group IV were: half-life (t½), drug concentration at time zero (C0), last measurable plasma concentration (AUClast), area under the plasma concentration curve extrapolation percentage (AUC % ext), area under the plasma concentration curve extrapolation to infinity (AUCinf), volume of distribution (Vz), steady state volume of distribution (Vss), clearance (CL) and mean residence time (MRT). The parameters evaluated for the Oral group were: bioavailability (F %), maximum concentration reached (Cmax), time to reach maximum plasma concentration (Tmax), last measurable plasma concentration (AUClast), area under the plasma concentration curve extrapolation percentage (AUC % ext), area under the plasma concentration curve extrapolation to infinity (AUCinf), area under the plasma concentration curve extrapolation to infinity versus dose (AUCinf/Dose), half-Life (t½), and mean residence time (MRT).

[4] = test system: cryopreserved hepatocytes from mice (CD-1 males); assay: Intrinsic clearance in cryopreserved mouse hepatocytes; type: in vitro ADME; conditions: 37° C.
Description: as §1

melatonin receptors = conditions: literature (Depreux et al. 1994); cited from earlier work
CYP1A2 [5] = target: T1, CYP1A2 (Homo sapiens (Human), UniProt P05177); assay: CYP inhibition, fluorogenic substrate; type: in vitro ADME
Text: The CYP inhibition test used fluorogenic substrates specific to each CYP to check for inhibition thereof by detection of the expected metabolite using a fluorimetric method. Recombinant CYPs (CYP2B6, CYP2C8, CYP2C9, CYP2C9, CYP2C19, CYP2D6, CYP3A4) from specific humans for each cytochrome family, subfamily and polypeptide were used. The following were used as substrates: CEC (3-Cyano-7-Ethoxycoumarin) which forms as metabolite CHC (3-Cyano-7-Hydroxycoumarin); EFC (7-Ethoxy-4-trifluoromethyl coumarin), forming the metabolite HFC (7-Hydroxytrifluoromethylcoumarin); DBF (Dibenzylfluorescein) and its respective fluorescein metabolite; MFC (7-Methoxy-4-trifluoromethylcoumarin) which forms the metabolite HFC (7-Hydroxytrifluoromethylcoumarin); BFC (7-Benzyloxy-Trifluoromethylcoumarin) and its metabolite HFC; and BzRes (benzyloxyresorufin) to form resofurine. The detection of the metabolite was done with a fluorimetric method: analytical technique to identify and characterize the amount of substance by excitation using a beam of ultraviolet light and measurement of the emitted fluorescence. For detection, a 96-well plate was used. […] Incubations were performed between 20-50 minutes at 37° C. according to the specific parameter of each fluorogenic substrate, for the evaluated component. Fluorescence at each well was detected before and after the incubation period.

MT2 receptor = MT2 receptor (Homo sapiens (Human), UniProt P49286); assay: MT2 functional assay; type: cell-based
CYP2C9 and CYP2C19 = conditions: cited from earlier work
CYP1A2 [6] = target: T1, CYP1A2; conditions: cited from earlier work
MT1 receptor = MT1 receptor (Homo sapiens (Human), UniProt P48039); assay: MT1 functional assay
Sequence of MT1 receptor (P48039 whole entry): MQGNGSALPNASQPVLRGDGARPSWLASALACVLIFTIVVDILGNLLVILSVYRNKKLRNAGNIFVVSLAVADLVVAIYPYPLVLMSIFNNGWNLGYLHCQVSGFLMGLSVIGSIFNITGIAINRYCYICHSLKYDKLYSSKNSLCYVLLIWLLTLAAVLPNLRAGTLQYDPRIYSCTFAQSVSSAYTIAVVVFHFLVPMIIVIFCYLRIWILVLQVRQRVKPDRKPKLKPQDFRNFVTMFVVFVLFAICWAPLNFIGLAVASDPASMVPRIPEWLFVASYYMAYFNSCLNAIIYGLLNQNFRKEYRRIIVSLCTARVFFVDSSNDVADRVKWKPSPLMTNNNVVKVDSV

T1 sequence (P05177 whole entry): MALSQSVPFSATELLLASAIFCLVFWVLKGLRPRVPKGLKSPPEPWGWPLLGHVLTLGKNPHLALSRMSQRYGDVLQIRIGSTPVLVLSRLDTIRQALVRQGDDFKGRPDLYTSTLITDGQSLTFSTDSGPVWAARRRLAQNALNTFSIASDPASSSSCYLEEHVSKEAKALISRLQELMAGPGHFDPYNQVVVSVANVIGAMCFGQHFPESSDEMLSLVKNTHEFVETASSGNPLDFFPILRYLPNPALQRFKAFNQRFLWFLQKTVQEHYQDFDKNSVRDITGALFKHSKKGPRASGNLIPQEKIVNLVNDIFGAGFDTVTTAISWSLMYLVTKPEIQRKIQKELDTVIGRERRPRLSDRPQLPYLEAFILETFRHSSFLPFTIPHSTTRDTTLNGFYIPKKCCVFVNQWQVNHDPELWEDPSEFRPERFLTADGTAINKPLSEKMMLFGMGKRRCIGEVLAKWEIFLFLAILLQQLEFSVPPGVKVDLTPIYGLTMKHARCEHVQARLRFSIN
Sequence of MT2 receptor (P49286 whole entry): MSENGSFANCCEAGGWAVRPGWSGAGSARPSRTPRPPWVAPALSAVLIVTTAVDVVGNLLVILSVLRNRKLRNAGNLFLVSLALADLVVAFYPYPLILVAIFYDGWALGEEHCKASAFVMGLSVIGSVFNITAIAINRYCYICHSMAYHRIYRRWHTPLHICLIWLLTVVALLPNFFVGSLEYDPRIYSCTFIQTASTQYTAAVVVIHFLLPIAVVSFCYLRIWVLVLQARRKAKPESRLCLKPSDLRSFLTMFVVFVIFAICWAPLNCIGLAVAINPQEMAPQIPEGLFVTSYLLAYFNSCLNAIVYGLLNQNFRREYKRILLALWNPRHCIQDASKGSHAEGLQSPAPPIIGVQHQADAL

Compound	Intrinsic clearance half-life, Human hepatocytes [1]	Intrinsic clearance half-life, Rat Sprague-Dawley hepatocytes [2]	C0 compared to agomelatine [3]	Clearance compared to agomelatine [3]	Intrinsic clearance half-life, Mouse CD-1 hepatocytes [4]	affinity lower than melatonin affinity (melatonin receptors)	affinity to CYP isoforms, specially CYP1A2 (CYP1A2 [5])	intrinsic activity at MT2 (MT2 receptor)	fraction metabolized by CYP2C9 and CYP2C19 (CYP2C9 and CYP2C19)	fraction metabolized in the liver by CYP1A2 (CYP1A2 [6])	intrinsic activity at MT1 (MT1 receptor)
CCOc1nc2ccc(OC)cc2n1CCCNC(C)=O [IA2-120]	>2 h	0.883 h	higher	lower	>2 h	–	–	–	–	–	–
COc1ccc2ncn(CCNC(C)=O)c2c1 [N-[2-(6-methoxybenzimidazol-1-yl)-ethyl]acetamide]	–	–	–	–	–	approximately 3,200 times	–	–	–	–	–
COc1ccc2cccc(CCNC(C)=O)c2c1 [IA2-76 (agomelatine), agomelatine]	0.8 h	0.833 h	–	–	0.417 h	–	high affinity	agonist	10%	Around 90%	agonist
CCOc1nc2cc(Cl)c(OC)cc2n1CCNC(C)=O [IA2-121]	>2 h	0.867 h	higher	lower	>2 h	–	–	–	–	–	–
CCOc1nc2cc(Cl)c(OC)cc2n1CCCNC(C)=O [IA2-142]	>2 h	>2 h	higher	lower	>2 h	–	–	–	–	–	–
COc1cc2c(cc1Cl)nc(OC)n2CCNC(C)=O [IA2-143]	–	1.8 h	higher	lower	–	–	–	–	–	–	–
